Results reported in patent publication US11524938B2, “Aromatic sulfonamide derivatives” (Bayer Pharma Aktiengesellschaft, priority 2016, dated 2022).

Molecular target: T1, human P2X4 (Homo sapiens, UniProt Q99571)
T1 sequence (Q99571 1-388): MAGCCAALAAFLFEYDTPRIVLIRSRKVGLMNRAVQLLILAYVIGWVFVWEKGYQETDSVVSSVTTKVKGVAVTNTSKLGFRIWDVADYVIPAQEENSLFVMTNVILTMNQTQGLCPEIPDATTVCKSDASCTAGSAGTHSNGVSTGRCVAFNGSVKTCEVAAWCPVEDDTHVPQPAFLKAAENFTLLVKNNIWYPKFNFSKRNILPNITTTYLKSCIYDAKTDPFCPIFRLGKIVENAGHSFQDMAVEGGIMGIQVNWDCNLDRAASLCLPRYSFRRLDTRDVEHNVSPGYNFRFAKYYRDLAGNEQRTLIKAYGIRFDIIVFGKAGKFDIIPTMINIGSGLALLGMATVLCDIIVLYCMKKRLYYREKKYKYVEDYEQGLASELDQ
Test: Human P2X4 HEK Cell FLIPR Assay
Assay type: cell-based
Details: agonist Bz-ATP at EC80; for Emax: HEK293, HEK293 cells, percentage of maximal inhibition, read-out: Human P2X4 HEK Cells (FLIPR Assay) avg Efficacy [%]; for IC50: HEK293 cells, individual values listed where some fall outside detection range
How it was run: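 HEK293 cells stably expressing human P2X4, Fluo8-AM loaded 30 min at 37° C, then compound 30 min at room temperature (0.5% DMSO, pH 7.4 buffer with 1.8 mM CaCl2). Bz-ATP at its daily-determined EC80 added; calcium fluorescence read over 120 sec; IC50 from peak RFU normalized to agonist control, triplicates.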

Structure (SMILES)	Emax	IC50
N#Cc1cnn(-c2ccc(NC(=O)Cc3cccc(Cl)c3)cc2S(N)(=O)=O)c1 [Example 191, 2-(3-Chlorophenyl)-N-[4-(4-cyano-1H-pyrazol-1-yl)-3-sulfamoylphenyl]acetamide]	76%	180 nM
N#Cc1cnn(-c2ccc(NC(=O)Cc3ccc(F)cc3)cc2S(N)(=O)=O)c1 [Example 192, N-[4-(4-Cyano-1H-pyrazol-1-yl)-3-sulfamoylphenyl]-2-(4-fluorophenyl)acetamide]	69%	575 nM
N#Cc1cnn(-c2ccc(NC(=O)Cc3ccccc3O)cc2S(N)(=O)=O)c1 [Example 193, N-[4-(4-Cyano-1H-pyrazol-1-yl)-3-sulfamoylphenyl]-2-(2-hydroxyphenyl)acetamide]	84%	427 nM
N#Cc1cnn(-c2ccc(NC(=O)Cc3ccc(O)cc3)cc2S(N)(=O)=O)c1 [Example 194, N-[4-(4-Cyano-1H-pyrazol-1-yl)-3-sulfamoylphenyl]-2-(4-hydroxyphenyl)acetamide]	84%	325 nM
COc1ccc(CC(=O)Nc2ccc(-n3cc(C#N)cn3)c(S(N)(=O)=O)c2)cc1 [Example 196, N-[4-(4-Cyano-1H-pyrazol-1-yl)-3-sulfamoylphenyl]-2-(4-methoxyphenyl)acetamide]	75%	164 nM
Cc1ccccc1CC(=O)Nc1ccc(-n2cc(C#N)cn2)c(S(N)(=O)=O)c1 [Example 197, N-[4-(4-Cyano-1H-pyrazol-1-yl)-3-sulfamoylphenyl]-2-(2-methylphenyl)acetamide]	87%	86 nM
CCOc1ccccc1CC(=O)Nc1ccc(-n2cc(C#N)cn2)c(S(N)(=O)=O)c1 [Example 199, N-[4-(4-Cyano-1H-pyrazol-1-yl)-3-sulfamoylphenyl]-2-(2-ethoxyphenyl)acetamide]	85%	299 nM
N#Cc1cnn(-c2ccc(NC(=O)Cc3cccnc3Cl)cc2S(N)(=O)=O)c1 [Example 201, 2-(2-Chloropyridin-3-yl)-N-[4-(4-cyano-1H-pyrazol-1-yl)-3-sulfamoylphenyl]-acetamide]	83%	4330 nM
N#Cc1cnn(-c2ccc(NC(=O)Cc3ccccc3OC(F)F)cc2S(N)(=O)=O)c1 [Example 203, N-[4-(4-Cyano-1H-pyrazol-1-yl)-3-sulfamoylphenyl]-2-[2-(difluoromethoxy)phenyl]-acetamide]	86%	99 nM
N#Cc1cnn(-c2ccc(NC(=O)Cc3cc(F)c(F)cc3Cl)cc2S(N)(=O)=O)c1 [Example 205, 2-(2-Chloro-4,5-difluorophenyl)-N-[4-(4-cyano-1H-pyrazol-1-yl)-3-sulfamoylphenyl]-acetamide]	89%	73 nM
COc1ccc(CC(=O)Nc2ccc(-n3cc(C#N)cn3)c(S(N)(=O)=O)c2)c(Cl)c1 [Example 210, 2-(2-Chloro-4-methoxyphenyl)-N-[4-(4-cyano-1H-pyrazol-1-yl)-3-sulfamoylphenyl]-acetamide]	76%	116 nM
N#Cc1cnn(-c2ccc(NC(=O)Cc3cc(Cl)ccc3Cl)cc2S(N)(=O)=O)c1 [Example 211, N-[4-(4-Cyano-1H-pyrazol-1-yl)-3-sulfamoylphenyl]-2-(2,5-dichlorophenyl)acetamide]	94%	75 nM
COc1ccc(Cl)cc1CC(=O)Nc1ccc(-n2cc(C#N)cn2)c(S(N)(=O)=O)c1 [Example 212, 2-(5-Chloro-2-methoxyphenyl)-N-[4-(4-cyano-1H-pyrazol-1-yl)-3-sulfamoylphenyl]-acetamide]	86%	149 nM
CC(C)c1ccccc1CC(=O)Nc1ccc(-n2cc(C#N)cn2)c(S(N)(=O)=O)c1 [Example 213, N-[4-(4-Cyano-1H-pyrazol-1-yl)-3-sulfamoylphenyl]-2-[2-(propan-2-yl)phenyl]-acetamide]	93%	47 nM
N#Cc1cnn(-c2ccc(NC(=O)Cc3cc(F)ccc3Cl)cc2S(N)(=O)=O)c1 [Example 214, 2-(2-Chloro-5-fluorophenyl)-N-[4-(4-cyano-1H-pyrazol-1-yl)-3-sulfamoylphenyl]-acetamide]	86%	36 nM
COc1cccc(Cl)c1CC(=O)Nc1ccc(-n2cc(C#N)cn2)c(S(N)(=O)=O)c1 [Example 216, 2-(2-Chloro-6-methoxyphenyl)-N-[4-(4-cyano-1H-pyrazol-1-yl)-3-sulfamoyl-phenyl]acetamide]	101%	96 nM
N#Cc1cnn(-c2ccc(NC(=O)Cc3c(F)cc(F)cc3Cl)cc2S(N)(=O)=O)c1 [Example 217, 2-(2-Chloro-4,6-difluorophenyl)-N-[4-(4-cyano-1H-pyrazol-1-yl)-3-sulfamoyl-phenyl]acetamide]	84%	51 nM
N#Cc1cnn(-c2ccc(NC(=O)Cc3ccncc3Cl)cc2S(N)(=O)=O)c1 [Example 218, 2-(3-Chloropyridin-4-yl)-N-[4-(4-cyano-1H-pyrazol*1-yl)-3-sulfamoyl-phenyl]acetamide]	92%	957 nM
N#Cc1cnn(-c2ccc(NC(=O)Cc3ccc(C(F)F)cc3)cc2S(N)(=O)=O)c1 [Example 219, N-[4-(4-Cyano-1H-pyrazol-1-yl)-3-sulfamoylphenyl]-2-[4-(difluoromethyl)-phenyl]acetamide]	65%	250 nM
N#Cc1cnn(-c2ccc(NC(=O)C(F)(F)c3ccccc3Cl)cc2S(N)(=O)=O)c1 [Example 220, 2-(2-Chlorophenyl)-N-[4-(4-cyano-1H-pyrazol-1-yl)-3-sulfamoylphenyl]-2,2-difluoroacetamide]	108%	276 nM
NS(=O)(=O)c1cc(NC(=O)Cc2ccccc2F)ccc1-c1cncc(C(F)(F)F)c1 [Example 221, 2-(2-Fluorophenyl)-N-{3-sulfamoyl-4-[5-(trifluoromethyl)pyridin-3-yl]phenyl}-acetamide]	63%	40 nM
NS(=O)(=O)c1cc(NC(=O)Cc2ccccc2OC(F)(F)F)ccc1-c1cncc(C(F)(F)F)c1 [Example 222, N-{3-Sulfamoyl-4-[5-(trifluoromethyl)pyridin-3-yl]phenyl}-2-[2-(trifluoromethoxy)-phenyl]acetamide]	83%	92 nM

Continued by falling IC50, values first:

Emax	IC50	Structure (SMILES)
94%	136 nM	Cc1cccc(CC(=O)Nc2ccc(-n3cc(C#N)cn3)c(S(N)(=O)=O)c2)c1 [Example 198, N-[4-(4-Cyano-1H-pyrazol-1-yl)-3-sulfamoylphenyl]-2-(3-methylphenyl)acetamide]
90%	131 nM	N#Cc1cnn(-c2ccc(NC(=O)Cc3cccc(F)c3F)cc2S(N)(=O)=O)c1 [Example 200, N-[4-(4-Cyano-1H-pyrazol-1-yl)-3-sulfamoylphenyl]-2-(2,3-difluorophenyl)acetamide]
68%	86 nM	Cc1ccc(CC(=O)Nc2ccc(-n3cc(C#N)cn3)c(S(N)(=O)=O)c2)cc1 [Example 195, N-[4-(4-Cyano-1H-pyrazol-1-yl)-3-sulfamoylphenyl]-2-(4-methylphenyl)acetamide]
86%	72 nM	N#Cc1cnn(-c2ccc(NC(=O)Cc3ccccc3OC(F)(F)F)cc2S(N)(=O)=O)c1 [Example 204, N-[4-(4-Cyano-1H-pyrazol-1-yl)-3-sulfamoylphenyl]-2-[2-(trifluoromethoxy)phenyl]-acetamide]
90%	48 nM	N#Cc1cnn(-c2ccc(NC(=O)Cc3ccc(F)cc3Cl)cc2S(N)(=O)=O)c1 [Example 202, 2-(2-Chloro-4-fluorophenyl)-N-[4-(4-cyano-1H-pyrazol-1-yl)-3-sulfamoylphenyl]-acetamide]
95%	38 nM	N#Cc1cnn(-c2ccc(NC(=O)Cc3c(Cl)cccc3C(F)(F)F)cc2S(N)(=O)=O)c1 [Example 215, 2-[2-Chloro-6-(trifluoromethyl)phenyl]-N-[4-(4-cyano-1H-pyrazol-1-yl)-3-sulfamoylphenyl]acetamide]
91%	37 nM	Cc1ccc(Cl)c(CC(=O)Nc2ccc(-n3cc(C#N)cn3)c(S(N)(=O)=O)c2)c1 [Example 209, 2-(2-Chloro-5-methylphenyl)-N-[4-(4-cyano-1H-pyrazol-1-yl)-3-sulfamoylphenyl]-acetamide]
91%	33 nM	N#Cc1cnn(-c2ccc(NC(=O)Cc3c(F)ccc(F)c3Cl)cc2S(N)(=O)=O)c1 [Example 208, 2-(2-Chloro-3,6-difluorophenyl)-N-[4-(4-cyano-1H-pyrazol-1-yl)-3-sulfamoylphenyl]-acetamide]
98%	29 nM	N#Cc1cnn(-c2ccc(NC(=O)Cc3cccc(C(F)(F)F)c3Cl)cc2S(N)(=O)=O)c1 [Example 206, 2-[2-Chloro-3-(trifluoromethyl)phenyl]-N-[4-(4-cyano-1H-pyrazol-1-yl)-3-sulfamoylphenyl]acetamide]
98%	12 nM	Cc1ccc(F)c(CC(=O)Nc2ccc(-n3cc(C#N)cn3)c(S(N)(=O)=O)c2)c1Cl [Example 207, 2-(2-Chloro-6-fluoro-3-methylphenyl)-N-[4-(4-cyano-1H-pyrazol-1-yl)-3-sulfamoylphenyl]acetamide]
